Results published in patent publication US10238670B2, “9-aminomethyl minocycline compounds and methods of use thereof in urinary tract infection (UTI) treatment” (Paratek Pharmaceuticals, Inc., priority 2016, dated 2019).
Converted amounts (≈) assume the structure as drawn.

Assays:
[1] = Phase 1b study, investigator's assessment of clinical response (EOT, PTE); type: in vivo, human
Description: b) Investigator's Assessment of Clinical Response Investigator's Assessment of Clinical Response at EOT
The EOT visit was conducted on Day 6. This evaluation was also conducted for any prematurely withdrawn subject. The following assessments were performed at the EOT visit: subject assessment of UTI signs and symptoms severity, urine culture and leukocyte esterase dipstick test or microscopic examination, physical examination, vital signs, 12-lead ECG, hematology and serum chemistry, serum pregnancy test (all subjects) and investigator's assessment of clinical response. Subjects, who discontinued study treatment before completing the study, and those who prematurely withdrew from the study for any reason, were scheduled for a visit as soon as possible, at which time all of the assessments listed for the EOT visit were performed.
It was determined whether the subject met the criteria of 1 of the following clinical outcomes: • Clinical Success: Resolution of signs and symptoms at the EOT visit and no use of additional antimicrobial therapy. • Clinical Failure: No apparent response to therapy, persistence of signs and symptoms of infection at the EOT visit, or use of additional antimicrobial therapy for the current infection. • Indeterminate: EOT visit not completed. Investigator's Assessment of Clinical Response at PTE
The PTE visit was conducted 5 to 9 days after the subject's last day of therapy. This evaluation was also conducted for any prematurely withdrawn subject. The following assessments were performed at the PTE visit: urine culture and leukocyte esterase dipstick test or microscopic examination, physical examination, vital signs, hematology, serum chemistry, serum pregnancy test (all subjects), and investigator's assessment of clinical response.
It was determined whether the subject met the criteria of 1 of the following clinical outcomes: • Clinical Success: Resolution of signs and symptoms at the PTE visit and no use of additional antimicrobial therapy. • Clinical Failure: No apparent response to therapy, persistence of signs and symptoms of infection, or reappearance of signs and symptoms at or before the PTE visit, or use of additional antimicrobial therapy for the current infection. • Indeterminate: PTE visit not completed.
Investigator's assessment of clinical response at the EOT and PTE visits with outcomes of Clinical Success, Clinical Failure or Indeterminate as defined above. Subjects who were a clinical failure at an earlier time point were considered a clinical failure at subsequent time points. The number and percentage of subjects with an Investigator's assessment of success, failure and indeterminate were presented for EOT and PTE visits by treatment group.

E. coli (ESBL phenotype) = experiment: Broth microdilution MIC against UTI pathogens (Example 4); type: cell-based; conditions: Escherichia coli; 2,743 isolates
Description: (§1) Antimicrobial activities of Compound 1 against a variety of common pathogens found in UTI were determined using a standard broth microdilution method (CLSI in Methods for Dilution Antimicrobial Susceptibility Tests for Bacteria That Grow Aerobically, Approved Standard M7-A8, Clinical and Laboratory Standards Institute, Wayne, Pa. (USA), 2011, incorporated herein by reference) with slight modifications.

[2] = system: E. coli (Carbapenem Resistant); experiment: as above; type: cell-based; conditions: Escherichia coli; 25 isolates
Description: as §1

[3] = system: E. coli (non-ESBL phenotype); experiment: as above; type: cell-based; conditions: Escherichia coli; 10,696 isolates
Description: as §1

SMILES: CN(C)c1cc(CNCC(C)(C)C)c(O)c2c1C[C@H]1C[C@H]3[C@H](N(C)C)C(O)=C(C(N)=O)C(=O)[C@@]3(O)C(O)=C1C2=O [Compound 1, 9-[(2,2-dimethyl-propylamino)-methyl]-minocycline]
- Reason for Clinical Failure: Persistence of signs and symptoms of infection at or before current visit ([1]; EOT, IV_PO300): 0 (0.0) n (%)
- Clinical Failure ([1]; EOT, IV_PO300 (N = 11)): 0 (0.0) n (%)
- Clinical Success ([1]; EOT, IV_PO300 (N = 11)): 10 (90.9) n (%)
- Indeterminate ([1]; EOT, IV_PO300 (N = 11)): 1 (9.1) n (%)
- Reason for Clinical Failure: Persistence of signs and symptoms of infection at or before current visit ([1]; EOT, PO300): 0 (0.0) n (%)
- Clinical Failure ([1]; EOT, PO300 (N = 10)): 0 (0.0) n (%)
- Clinical Success ([1]; EOT, PO300 (N = 10)): 10 (100.0) n (%)
- Indeterminate ([1]; EOT, PO300 (N = 10)): 0 (0.0) n (%)
- Reason for Clinical Failure: Persistence of signs and symptoms of infection at or before current visit ([1]; EOT, PO450): 1 (100.0) n (%)
- Clinical Failure ([1]; EOT, PO450 (N = 10)): 1 (10.0) n (%)
- Clinical Success ([1]; EOT, PO450 (N = 10)): 9 (90.0) n (%)
- Indeterminate ([1]; EOT, PO450 (N = 10)): 0 (0.0) n (%)
- Reason for Clinical Failure: Persistence of signs and symptoms of infection at or before current visit ([1]; PTE, IV_PO300): 0 (0.0) n (%)
- Reason for Clinical Failure: Use of additional systemic antimicrobial therapy for the current infection ([1]; PTE, IV_PO300): 0 (0.0) n (%)
- Clinical Failure ([1]; PTE, IV_PO300 (N = 11)): 0 (0.0) n (%)
- Clinical Success ([1]; PTE, IV_PO300 (N = 11)): 11 (100.0) n (%)
- Indeterminate ([1]; PTE, IV_PO300 (N = 11)): 0 (0.0) n (%)
- Reason for Clinical Failure: Persistence of signs and symptoms of infection at or before current visit ([1]; PTE, PO300): 2 (100.0) n (%)
- Reason for Clinical Failure: Use of additional systemic antimicrobial therapy for the current infection ([1]; PTE, PO300): 0 (0.0) n (%)
- Clinical Failure ([1]; PTE, PO300 (N = 10)): 2 (20.0) n (%)
- Clinical Success ([1]; PTE, PO300 (N = 10)): 7 (70.0) n (%)
- Indeterminate ([1]; PTE, PO300 (N = 10)): 0 (0.0) n (%)
- Reason for Clinical Failure: Persistence of signs and symptoms of infection at or before current visit ([1]; PTE, PO450): 1 (50.0) n (%)
- Reason for Clinical Failure: Use of additional systemic antimicrobial therapy for the current infection ([1]; PTE, PO450): 1 (50.0) n (%)
- Clinical Failure ([1]; PTE, PO450 (N = 10)): 2 (20.0) n (%)
- Clinical Success ([1]; PTE, PO450 (N = 10)): 8 (80.0) n (%)
- Indeterminate ([1]; PTE, PO450 (N = 10)): 0 (0.0) n (%)
- MIC50 (E. coli (ESBL phenotype)): 1 µg/mL (≈ 1.8 µM)
- MIC90 (E. coli (ESBL phenotype)): 4 µg/mL (≈ 7.19 µM)
- MIC50 [2]: 1 µg/mL (≈ 1.8 µM)
- MIC90 [2]: 4 µg/mL (≈ 7.19 µM)
- MIC50 [3]: 0.5 µg/mL (≈ 0.898 µM)
- MIC90 [3]: 2 µg/mL (≈ 3.59 µM)
